Assay results: PMC4424277, “Astrocytosis precedes amyloid plaque deposition in Alzheimer APPswe transgenic mouse brain: a correlative positron emission tomography and in vitro imaging study” (European Journal of Nuclear Medicine and Molecular Imaging, 2015)

Target: T1, beta-amyloid (Aβ) (Homo sapiens, UniProt P05067)
T1 construct: gene APP; Aβ plaques (fibrillar deposits) in cortical homogenates of APPswe (Tg2576) mice expressing APP with the Swedish mutation
Test: radioligand saturation binding in APPswe mouse cortical homogenates; autoradiography

T1 sequence (P05067 18-770): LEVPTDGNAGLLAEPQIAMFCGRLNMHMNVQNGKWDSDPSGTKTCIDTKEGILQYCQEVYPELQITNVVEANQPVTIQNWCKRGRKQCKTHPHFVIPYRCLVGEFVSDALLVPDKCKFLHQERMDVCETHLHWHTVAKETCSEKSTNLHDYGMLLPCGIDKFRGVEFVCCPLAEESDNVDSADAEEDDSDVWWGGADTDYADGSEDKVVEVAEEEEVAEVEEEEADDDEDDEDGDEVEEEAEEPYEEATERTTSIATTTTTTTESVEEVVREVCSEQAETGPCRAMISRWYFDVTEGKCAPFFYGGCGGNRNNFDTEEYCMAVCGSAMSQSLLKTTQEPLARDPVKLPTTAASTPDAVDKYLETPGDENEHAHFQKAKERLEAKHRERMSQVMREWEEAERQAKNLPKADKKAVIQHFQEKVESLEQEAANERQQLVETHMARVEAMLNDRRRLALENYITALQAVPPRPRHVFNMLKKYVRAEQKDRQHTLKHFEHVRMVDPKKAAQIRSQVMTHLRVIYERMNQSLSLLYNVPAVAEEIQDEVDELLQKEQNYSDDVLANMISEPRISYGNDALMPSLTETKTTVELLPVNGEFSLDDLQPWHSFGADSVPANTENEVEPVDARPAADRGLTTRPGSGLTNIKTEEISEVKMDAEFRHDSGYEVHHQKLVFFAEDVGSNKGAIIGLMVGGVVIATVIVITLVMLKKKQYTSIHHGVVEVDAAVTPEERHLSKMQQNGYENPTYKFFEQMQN

Kd: 10.6 nM
SMILES: CNc1ccc(-c2nc3ccc(O)cc3s2)cn1 [AZD2184]
